Source: patent US9073975B2, “Cyclic peptides, their preparation and their use as inhibitors of the platelet adhesion” (SANOFI, priority 2010, dated 2015)
Starred links: 1 amine or outer side, 2 acyl side, 3 side chain; linkers in the order of their positions; H or OH if unused. Non-standard residues stand in square brackets, D forms with d. Residues, ends and D or L forms follow the SMILES beside them. NH(CH2)9CO = O=C(CCCCCCCCCN[*:1])[*:2]; Nle = CCCC[C@H](N)C(=O)O; Dap = NC[C@H](N)C(=O)O; Ac3c = NC1(C(=O)O)CC1; Aib = CC(C)(N)C(=O)O; Ahp = NCCCCCCC(=O)O; Ava = NCCCCC(=O)O; GABA = NCCCC(=O)O

target: T1, recombinant human vWF-A1 domain (Homo sapiens, UniProt P07359); assay: Static human platelet adhesion to recombinant human vWF-A1 domain; type: cell-based; settings: washed calcein AM labeled human platelets, static conditions, 1.5 h adhesion; read-out: Activity (IC50 for inhibition of the binding of platelets to vWF A1 domain)
T1 construct: whole blood drawn from voluntary donors; made in house; host or cells: E. coli (vWF-A1); washed platelets from human donor blood (GPIb, endogenous)
T1 sequence (P07359 17-652): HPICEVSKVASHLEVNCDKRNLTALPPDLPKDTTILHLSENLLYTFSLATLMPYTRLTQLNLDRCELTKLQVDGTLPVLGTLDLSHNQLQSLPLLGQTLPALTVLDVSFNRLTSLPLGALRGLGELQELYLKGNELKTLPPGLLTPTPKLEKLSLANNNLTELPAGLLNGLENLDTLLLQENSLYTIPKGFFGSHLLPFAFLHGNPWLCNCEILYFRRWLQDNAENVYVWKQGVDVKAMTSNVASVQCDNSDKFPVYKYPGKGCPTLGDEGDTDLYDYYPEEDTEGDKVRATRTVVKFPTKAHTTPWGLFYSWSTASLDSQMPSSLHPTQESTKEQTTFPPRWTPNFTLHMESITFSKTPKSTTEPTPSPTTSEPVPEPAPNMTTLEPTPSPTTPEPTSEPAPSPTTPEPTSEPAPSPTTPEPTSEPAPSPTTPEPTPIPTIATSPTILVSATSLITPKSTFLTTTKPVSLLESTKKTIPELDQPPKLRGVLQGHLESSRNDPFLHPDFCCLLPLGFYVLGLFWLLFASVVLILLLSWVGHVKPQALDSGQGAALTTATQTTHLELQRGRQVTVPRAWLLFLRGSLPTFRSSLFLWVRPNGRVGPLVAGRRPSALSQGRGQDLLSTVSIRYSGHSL
T1 sequence (P13224 26-206 partner): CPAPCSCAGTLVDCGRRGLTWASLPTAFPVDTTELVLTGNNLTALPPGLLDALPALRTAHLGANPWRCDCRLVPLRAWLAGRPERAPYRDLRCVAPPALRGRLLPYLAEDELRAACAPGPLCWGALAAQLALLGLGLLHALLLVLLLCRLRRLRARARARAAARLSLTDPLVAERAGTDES
T1 sequence (P14770 17-177 partner): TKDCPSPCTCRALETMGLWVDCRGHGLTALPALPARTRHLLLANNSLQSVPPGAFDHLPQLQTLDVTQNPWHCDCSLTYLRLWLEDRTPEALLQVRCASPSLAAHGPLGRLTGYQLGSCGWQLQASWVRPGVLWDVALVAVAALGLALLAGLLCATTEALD
Method: The activity of compounds of the formula I can be shown by procedures known in the art, for example by determining their inhibition of the binding of platelets to vWF A1 domain in an appropriate assay. To this end, assay plates can be coated with vWF-A1 domain. […] Then fluorescence-labeled thrombocytes are added and incubated for 90 minutes. In a complex washing procedure all non-bound thrombocytes are removed and the plates are measured, for example in a laser-based reader Acumen Explorer or a bulk reader like Spectramax. […] To assess the effect of compounds on the interaction of the GPIb complex on platelets with vWF, an assay system was used measuring binding of human platelets to recombinant human vWF-A1 domain under static conditions in the presence and absence of the compounds. […] Platelet rich plasma was carefully removed, transferred to a fresh container and spun down for 15 min at 120 g. Platelet rich plasma was carefully transferred again to fresh containers, PGE1 (0.5 μg/ml, Sigma) was added and the suspension was allowed to rest for 5 min. This was followed by another centrifugation step for 15 min at 360 g. The supernatant was discarded and the cell pellets were carefully resuspended in tyrode buffer (NaCl, 137 mM (Sigma S-3014); KCl, 2.7 mM (Sigma P-9541); NaHCO3,12 mM ([…] 31437); NaH2PO4×2H2O, 0.36 mM (Merck 6345); […] After 5 min of resting the suspension was spun down for 15 min at 300 g. The supernatant was discarded and the pellets were carefully resuspended in TBS buffer (Tris-HCl, 50 mM (Fluka 93371); NaCl, 120 mM (Sigma S-3014); KCl, 2.7 mM (Sigma P-9541); CaCl2, 0.05 mM (Sigma C-3306); MgCl2×6 H2O, 2 mM (Sigma M-2670); […] The platelet count was adjusted to 2×10^5 cells/μl, and the suspensions from individual donors were pooled at this stage. The platelets were allowed to rest for 30 min at room temperature before calcein AM (2.5 μM per 2×10^5 cells/μl (Molecular Probes C-3099)) was added. This was followed by 15 min incubation in the dark. Cells were diluted to 5×10^4 cells/μl and ReoPro (3 μg/ml (Centocor B. V., Leiden, N L)) was added, followed by a 10 min incubation period in the dark before adding the platelets to the assay plates. 96 well plates (Greiner hb, black, clear bottom, F, 655097) were coated with human recombinant vWF-A1 domain (1.5 μg/well, AA 475-706, expressed in E. coli) in Tris buffer (pH 7.4; Tris-HCl, 25 mM; NaCl, 150 mM) and incubated for 1 h at room temperature. After washing the wells 3× with TBS, blocking buffer (TBS with 5% BSA) was added followed by an incubation for 1 h. The wells were washed again 3× with TBS before 200 μl TBS were added to each well, preventing them from drying out. TBS was flicked out and serial dilutions of the test compound were added. The washed and calcein AM labeled thrombocytes were added to the wells (2.5×10^6 cells/well). Following an adhesion period of 1.5 h in the dark the wells were washed 3× with TBS. Measurement of fluorescence per well was performed in a SpectraMax M5 reader (Molecular Devices). From the raw data % inhibition and IC50 values were calculated.

Compound	IC50 [µM]
CCCC[C@@H]1NC(=O)[C@H](CCCNC(=N)N)NC(=O)[C@H](CCC(=O)O)NC(=O)[C@H]([C@@H](C)O)NC(=O)CCCCCCNC(=O)[C@H](CC(C)C)NC(=O)[C@H](CC(N)=O)NC(=O)[C@H](Cc2c[nH]cn2)NC(=O)[C@H](CC(C)C)NC(=O)[C@H](C)NC1=O [Example 43, Cyclo[Leu-His-Asn-Leu-NH—(CH2)6—CO-Thr-Glu-Arg-Nle-Ala]] (cyclo(ALHNL[Ahp]TER[Nle]))	< 1
COC[C@@H]1NC(=O)[C@H](CCCNC(=N)N)NC(=O)[C@H](CCC(=O)O)NC(=O)[C@H]([C@@H](C)O)NC(=O)CCCCCCNC(=O)[C@H](CC(C)C)NC(=O)[C@H](CC(N)=O)NC(=O)[C@H](Cc2c[nH]cn2)NC(=O)[C@H](CC(C)C)NC(=O)[C@H](C)NC1=O [Example 45, Cyclo[Leu-His-Asn-Leu-NH—(CH2)6—CO-Thr-Glu-Arg-Amp-Ala]] (cyclo(ALHNL[Ahp]TERS(Me)))	< 1
CSCC[C@@H]1NC(=O)[C@H](CCCNC(=N)N)NC(=O)[C@H](CCC(=O)O)NC(=O)[C@H]([C@@H](C)O)NC(=O)CCCCNC(=O)CNC(=O)[C@H](CC(C)C)NC(=O)[C@H](CC(N)=O)NC(=O)[C@H](Cc2c[nH]cn2)NC(=O)[C@H](CC(C)C)NC(=O)[C@H](C)NC1=O [Example 46, Cyclo[Leu-His-Asn-Leu-Gly-NH—(CH2)4—CO-Thr-Glu-Arg-Met-Ala]] (cyclo(ALHNLG[Ava]TERM))	1 to 10
CSCC[C@@H]1NC(=O)[C@H](CCCNC(=N)N)NC(=O)[C@H](CCC(=O)O)NC(=O)[C@H]([C@@H](C)O)NC(=O)CCCCCCCCCNC(=O)[C@H](CC(C)C)NC(=O)[C@H](CC(N)=O)NC(=O)[C@H](Cc2c[nH]cn2)NC(=O)[C@H](CC(C)C)NC(=O)[C@H](C)NC1=O [Example 47, Cyclo[Leu-His-Asn-Leu-NH—(CH2)9—CO-Thr-Glu-Arg-Met-Ala]] (cyclo(ALHNL[NH(CH2)9CO]TERM))	1 to 10
CSCC[C@@H]1NC(=O)[C@H](CCCNC(=N)N)NC(=O)[C@H](CCC(=O)O)NC(=O)[C@H]([C@@H](C)O)NC(=O)CCCNC(=O)[C@H](CN)NC(=O)[C@H](CC(C)C)NC(=O)[C@H](CC(N)=O)NC(=O)[C@H](Cc2c[nH]cn2)NC(=O)[C@H](CC(C)C)NC(=O)[C@H](C)NC1=O [Example 49, Cyclo[Leu-His-Asn-Leu-Dpr-NH—(CH2)3—CO-Thr-Glu-Arg-Met-Ala]] (cyclo(ALHNL[Dap][GABA]TERM))	1 to 10
CSCC[C@@H]1NC(=O)[C@H](CCCNC(=N)N)NC(=O)[C@H](CCC(=O)O)NC(=O)[C@H]([C@@H](C)O)NC(=O)[C@H](CC(N)=O)NC(=O)CCCNC(=O)[C@H](CC(C)C)NC(=O)[C@H](CC(N)=O)NC(=O)[C@H](Cc2c[nH]cn2)NC(=O)[C@H](CC(C)C)NC(=O)[C@H](C)NC1=O [Example 50, Cyclo[Leu-His-Asn-Leu-NH—(CH2)3—CO-Asn-Thr-Glu-Arg-Met-Ala]] (cyclo(ALHNL[GABA]NTERM))	1 to 10
CSCC[C@@H]1NC(=O)[C@H](CCCNC(=N)N)NC(=O)[C@H](CCC(=O)O)NC(=O)[C@H]([C@@H](C)O)NC(=O)C(C)(C)NC(=O)CCCNC(=O)[C@H](CC(C)C)NC(=O)[C@H](CC(N)=O)NC(=O)[C@H](Cc2c[nH]cn2)NC(=O)[C@H](CC(C)C)NC(=O)[C@H](C)NC1=O [Example 53, Cyclo[Leu-His-Asn-Leu-NH—(CH2)3—CO-Aib-Thr-Glu-Arg-Met-Ala]] (cyclo(ALHNL[GABA][Aib]TERM))	1 to 10
CSCC[C@@H]1NC(=O)[C@H](CCCNC(=N)N)NC(=O)[C@H](CCC(=O)O)NC(=O)[C@H]([C@@H](C)O)NC(=O)C2(CC2)NC(=O)CCCNC(=O)[C@H](CC(C)C)NC(=O)[C@H](CC(N)=O)NC(=O)[C@H](Cc2c[nH]cn2)NC(=O)[C@H](CC(C)C)NC(=O)[C@H](C)NC1=O [Example 54, Cyclo[Leu-His-Asn-Leu-NH—(CH2)3—CO-Ac3-Thr-Glu-Arg-Met-Ala]] (cyclo(ALHNL[GABA][Ac3c]TERM))	1 to 10
CSCC[C@@H]1NC(=O)[C@H](CCCNC(=N)N)NC(=O)[C@H](CCC(=O)O)NC(=O)[C@H]([C@@H](C)O)NC(=O)CCCCCCNC(=O)[C@H](CC(C)C)NC(=O)[C@H](CC(N)=O)NC(=O)[C@H](Cc2c[nH]cn2)NC(=O)[C@H](CC(C)C)NC(=O)[C@H](CCC(N)=O)NC1=O [Example 55, Cyclo[Leu-His-Asn-Leu-NH—(CH2)6—CO-Thr-Glu-Arg-Met-Gln]] (cyclo([Ahp]TERMQLHNL))	1 to 10
